# According to ChEMBL document CHEMBL6134930, “Discovery of AB801, a Potent and Selective Inhibitor of AXL Receptor Tyrosine Kinase for Use in Cancer Therapy” (J Med Chem, 2025):
# What was measured:
# CYP2B6 = biological target: T1, CYP2B6 (Homo sapiens, UniProt P20813); assay: Time dependent inhibition of CYP2B6 (unknown origin) at 30 uM measured after 30 mins relative to control; format: ADME; settings: read-out: TDI
# T1 sequence (P20813 whole entry): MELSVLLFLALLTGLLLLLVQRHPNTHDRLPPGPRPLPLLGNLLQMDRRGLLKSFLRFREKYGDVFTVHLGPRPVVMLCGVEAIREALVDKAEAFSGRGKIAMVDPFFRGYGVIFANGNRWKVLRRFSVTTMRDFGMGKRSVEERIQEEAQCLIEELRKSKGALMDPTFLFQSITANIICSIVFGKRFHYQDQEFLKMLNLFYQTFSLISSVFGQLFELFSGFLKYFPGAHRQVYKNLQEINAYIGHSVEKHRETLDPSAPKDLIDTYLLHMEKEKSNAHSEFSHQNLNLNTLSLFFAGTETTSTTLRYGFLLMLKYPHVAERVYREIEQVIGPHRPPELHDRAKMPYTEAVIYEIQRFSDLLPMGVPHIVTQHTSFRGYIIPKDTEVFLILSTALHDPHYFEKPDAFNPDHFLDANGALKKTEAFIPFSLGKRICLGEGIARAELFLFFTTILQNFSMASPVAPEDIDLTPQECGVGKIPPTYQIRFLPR
# [1] = Efflux ratio in human Caco-2 cells; format: ADME, cell-based
# [2] = Apparent permeability of compound from apical to basolateral side in human Caco-2 cells; format: ADME, cell-based; settings: read-out: permeability
# [3] = Clearance in Sprague-Dawley rat at 0.5 mg/kg, iv measured up to 24 hrs by LC-MS/MS analysis; format: ADME, organism-based; settings: in vivo
# [4] = biological target: T2, Tyrosine-protein kinase receptor UFO (Homo sapiens, UniProt P30530); assay: Inhibition of autophosphorylation AXL (unknown origin) expressed in HEK293 cells assessed as NanoLuc activity associated with phosphorylated proteins measured after 1 hr incubation by intracellular pAXL-ELISA; format: cell-based
# T2 sequence (P30530 whole entry): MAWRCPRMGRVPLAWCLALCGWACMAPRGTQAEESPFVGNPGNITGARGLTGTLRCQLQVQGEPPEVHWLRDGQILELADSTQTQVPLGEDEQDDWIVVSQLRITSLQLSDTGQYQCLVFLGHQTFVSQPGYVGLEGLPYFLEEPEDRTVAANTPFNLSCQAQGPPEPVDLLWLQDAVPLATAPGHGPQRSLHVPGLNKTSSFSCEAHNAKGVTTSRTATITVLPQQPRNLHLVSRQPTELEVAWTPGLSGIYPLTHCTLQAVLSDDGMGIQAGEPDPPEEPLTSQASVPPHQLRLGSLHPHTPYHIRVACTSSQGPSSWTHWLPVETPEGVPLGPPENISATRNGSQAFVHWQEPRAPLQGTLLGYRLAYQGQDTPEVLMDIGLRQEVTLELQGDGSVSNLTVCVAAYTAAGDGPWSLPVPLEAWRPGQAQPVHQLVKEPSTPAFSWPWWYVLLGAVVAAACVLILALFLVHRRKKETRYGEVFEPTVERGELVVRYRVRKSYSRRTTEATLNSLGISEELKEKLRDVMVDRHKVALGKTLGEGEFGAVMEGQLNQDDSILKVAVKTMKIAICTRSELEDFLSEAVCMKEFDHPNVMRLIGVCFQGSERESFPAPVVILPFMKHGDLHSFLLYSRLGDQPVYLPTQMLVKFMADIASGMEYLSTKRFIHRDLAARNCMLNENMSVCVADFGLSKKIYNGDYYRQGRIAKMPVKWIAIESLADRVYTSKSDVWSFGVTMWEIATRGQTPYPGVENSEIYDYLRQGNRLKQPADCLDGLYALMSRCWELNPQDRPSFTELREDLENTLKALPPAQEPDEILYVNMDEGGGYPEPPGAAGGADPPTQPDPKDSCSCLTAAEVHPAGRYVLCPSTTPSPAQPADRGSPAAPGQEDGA
# CYP1A2 = biological target: T3, CYP1A2 (Homo sapiens, UniProt P05177); assay: Time dependent inhibition of CYP1A2 (unknown origin) at 30 uM measured after 30 mins relative to control; format: ADME; settings: read-out: TDI
# T3 sequence (P05177 whole entry): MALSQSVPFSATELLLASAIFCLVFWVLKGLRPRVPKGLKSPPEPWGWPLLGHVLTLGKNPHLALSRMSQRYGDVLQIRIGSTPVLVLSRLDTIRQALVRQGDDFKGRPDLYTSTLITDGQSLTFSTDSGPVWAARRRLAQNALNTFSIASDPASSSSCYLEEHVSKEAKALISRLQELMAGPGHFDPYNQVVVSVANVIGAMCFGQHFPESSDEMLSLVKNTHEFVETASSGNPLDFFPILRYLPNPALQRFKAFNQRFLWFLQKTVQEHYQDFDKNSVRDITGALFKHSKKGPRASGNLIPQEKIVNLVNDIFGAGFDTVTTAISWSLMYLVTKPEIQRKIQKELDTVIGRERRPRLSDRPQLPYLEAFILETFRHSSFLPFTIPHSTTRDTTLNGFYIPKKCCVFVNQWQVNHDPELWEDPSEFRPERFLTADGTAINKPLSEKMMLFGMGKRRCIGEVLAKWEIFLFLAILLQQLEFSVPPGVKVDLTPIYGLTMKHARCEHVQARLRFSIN
# CYP3A4 [5] = biological target: T4, CYP3A4 (Homo sapiens, UniProt P08684); assay: Time dependent inhibition of CYP3A4 (unknown origin) using testosterone as substrate at 30 uM measured after 30 mins relative to control; format: ADME; settings: probe testosterone, read-out: TDI
# T4 sequence (P08684 whole entry): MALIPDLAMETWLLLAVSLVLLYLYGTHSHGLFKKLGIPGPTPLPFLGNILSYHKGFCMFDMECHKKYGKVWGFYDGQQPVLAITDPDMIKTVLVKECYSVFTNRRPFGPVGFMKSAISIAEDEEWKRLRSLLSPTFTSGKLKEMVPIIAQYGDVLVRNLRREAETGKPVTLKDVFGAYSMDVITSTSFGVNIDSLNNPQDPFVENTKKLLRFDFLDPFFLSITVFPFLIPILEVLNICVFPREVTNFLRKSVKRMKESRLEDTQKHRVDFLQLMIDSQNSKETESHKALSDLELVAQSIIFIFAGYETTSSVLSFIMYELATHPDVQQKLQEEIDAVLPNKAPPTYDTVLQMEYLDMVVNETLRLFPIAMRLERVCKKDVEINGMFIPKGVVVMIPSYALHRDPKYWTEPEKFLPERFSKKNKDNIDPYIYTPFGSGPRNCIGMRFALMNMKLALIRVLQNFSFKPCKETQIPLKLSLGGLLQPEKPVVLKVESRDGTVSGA
# [6] = Clearance in cynomolgus monkey at 0.5 mg/kg, iv measured up to 24 hrs by LC-MS/MS analysis; format: ADME, organism-based, Macaca fascicularis; settings: in vivo
# CYP2C9 = CYP2C9 (Homo sapiens, UniProt P11712); assay: Time dependent inhibition of CYP2C9 (unknown origin) at 30 uM measured after 30 mins relative to control; format: ADME; settings: read-out: TDI
# CYP2C9, sequence (P11712 whole entry): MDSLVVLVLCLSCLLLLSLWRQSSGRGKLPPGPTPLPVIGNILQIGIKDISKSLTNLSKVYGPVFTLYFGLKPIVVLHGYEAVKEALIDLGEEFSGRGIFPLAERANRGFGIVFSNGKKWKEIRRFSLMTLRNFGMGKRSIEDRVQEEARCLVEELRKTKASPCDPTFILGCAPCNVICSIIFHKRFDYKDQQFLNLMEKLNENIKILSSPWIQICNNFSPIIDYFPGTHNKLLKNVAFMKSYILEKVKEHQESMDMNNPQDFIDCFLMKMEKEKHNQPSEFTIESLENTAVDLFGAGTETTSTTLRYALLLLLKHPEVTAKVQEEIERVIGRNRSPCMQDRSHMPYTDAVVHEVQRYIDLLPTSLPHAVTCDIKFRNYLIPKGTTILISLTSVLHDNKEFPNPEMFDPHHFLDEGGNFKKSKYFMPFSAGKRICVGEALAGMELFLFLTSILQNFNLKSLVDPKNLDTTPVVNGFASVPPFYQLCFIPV
# [7] = Clearance in CD-1 mouse at 0.5 mg/kg, iv measured up to 24 hrs by LC-MS/MS analysis; format: ADME, organism-based; settings: in vivo
# [8] = AUCinf in Sprague-Dawley rat at 2 mg/kg, po measured up to 8 hrs by LC-MS/MS analysis; format: ADME, organism-based; settings: in vivo
# CYP2C8 = biological target: T5, CYP2C8 (Homo sapiens, UniProt P10632); assay: Time dependent inhibition of CYP2C8 (unknown origin) at 30 uM measured after 30 mins relative to control; format: ADME; settings: read-out: TDI
# T5 sequence (P10632 whole entry): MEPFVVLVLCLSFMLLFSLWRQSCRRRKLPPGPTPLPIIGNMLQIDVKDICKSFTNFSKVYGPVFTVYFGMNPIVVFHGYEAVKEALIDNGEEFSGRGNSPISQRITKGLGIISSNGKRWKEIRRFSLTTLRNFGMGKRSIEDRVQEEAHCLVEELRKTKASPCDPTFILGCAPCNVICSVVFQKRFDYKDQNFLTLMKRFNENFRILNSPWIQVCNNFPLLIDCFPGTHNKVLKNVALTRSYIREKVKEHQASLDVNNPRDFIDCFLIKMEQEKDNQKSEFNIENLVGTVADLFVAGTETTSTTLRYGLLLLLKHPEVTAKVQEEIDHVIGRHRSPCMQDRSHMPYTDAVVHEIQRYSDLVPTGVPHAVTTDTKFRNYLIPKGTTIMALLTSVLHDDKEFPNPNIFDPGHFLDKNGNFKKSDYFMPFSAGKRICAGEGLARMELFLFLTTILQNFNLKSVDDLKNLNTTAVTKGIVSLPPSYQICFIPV
# [9] = Clearance in Beagle dog at 0.5 mg/kg, iv measured up to 24 hrs by LC-MS/MS analysis; format: ADME, organism-based, Canis lupus familiaris; settings: in vivo
# [10] = Metabolic stability in rat hepatocytes assessed as intrinsic clearance measured per 10^6 cells; format: ADME, cell-based, Hepatocyte; settings: read-out: CLH
# CYP2C19 = CYP2C19 (Homo sapiens, UniProt P33261); assay: Time dependent inhibition of CYP2C19 (unknown origin) at 30 uM measured after 30 mins relative to control; format: ADME; settings: read-out: TDI
# CYP2C19, sequence (P33261 whole entry): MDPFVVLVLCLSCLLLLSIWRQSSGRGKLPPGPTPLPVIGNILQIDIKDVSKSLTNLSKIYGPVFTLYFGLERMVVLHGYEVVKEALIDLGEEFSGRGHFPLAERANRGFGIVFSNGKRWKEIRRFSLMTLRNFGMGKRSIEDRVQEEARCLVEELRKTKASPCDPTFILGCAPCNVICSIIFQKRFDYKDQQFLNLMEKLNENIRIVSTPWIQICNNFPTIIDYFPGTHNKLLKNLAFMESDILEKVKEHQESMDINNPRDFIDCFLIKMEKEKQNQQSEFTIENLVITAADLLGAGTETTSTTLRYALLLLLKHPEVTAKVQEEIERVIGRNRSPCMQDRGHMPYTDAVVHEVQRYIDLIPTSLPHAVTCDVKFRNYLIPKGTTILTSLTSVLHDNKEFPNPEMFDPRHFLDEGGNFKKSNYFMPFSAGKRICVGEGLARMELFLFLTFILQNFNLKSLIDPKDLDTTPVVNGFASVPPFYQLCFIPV
# hERG (KCNH2) = hERG (KCNH2) (Homo sapiens, UniProt Q12809); assay: Inhibition of hERG at 10 uM by high throughput cell based patch clamp assay; format: toxicity
# hERG (KCNH2), sequence (Q12809 whole entry): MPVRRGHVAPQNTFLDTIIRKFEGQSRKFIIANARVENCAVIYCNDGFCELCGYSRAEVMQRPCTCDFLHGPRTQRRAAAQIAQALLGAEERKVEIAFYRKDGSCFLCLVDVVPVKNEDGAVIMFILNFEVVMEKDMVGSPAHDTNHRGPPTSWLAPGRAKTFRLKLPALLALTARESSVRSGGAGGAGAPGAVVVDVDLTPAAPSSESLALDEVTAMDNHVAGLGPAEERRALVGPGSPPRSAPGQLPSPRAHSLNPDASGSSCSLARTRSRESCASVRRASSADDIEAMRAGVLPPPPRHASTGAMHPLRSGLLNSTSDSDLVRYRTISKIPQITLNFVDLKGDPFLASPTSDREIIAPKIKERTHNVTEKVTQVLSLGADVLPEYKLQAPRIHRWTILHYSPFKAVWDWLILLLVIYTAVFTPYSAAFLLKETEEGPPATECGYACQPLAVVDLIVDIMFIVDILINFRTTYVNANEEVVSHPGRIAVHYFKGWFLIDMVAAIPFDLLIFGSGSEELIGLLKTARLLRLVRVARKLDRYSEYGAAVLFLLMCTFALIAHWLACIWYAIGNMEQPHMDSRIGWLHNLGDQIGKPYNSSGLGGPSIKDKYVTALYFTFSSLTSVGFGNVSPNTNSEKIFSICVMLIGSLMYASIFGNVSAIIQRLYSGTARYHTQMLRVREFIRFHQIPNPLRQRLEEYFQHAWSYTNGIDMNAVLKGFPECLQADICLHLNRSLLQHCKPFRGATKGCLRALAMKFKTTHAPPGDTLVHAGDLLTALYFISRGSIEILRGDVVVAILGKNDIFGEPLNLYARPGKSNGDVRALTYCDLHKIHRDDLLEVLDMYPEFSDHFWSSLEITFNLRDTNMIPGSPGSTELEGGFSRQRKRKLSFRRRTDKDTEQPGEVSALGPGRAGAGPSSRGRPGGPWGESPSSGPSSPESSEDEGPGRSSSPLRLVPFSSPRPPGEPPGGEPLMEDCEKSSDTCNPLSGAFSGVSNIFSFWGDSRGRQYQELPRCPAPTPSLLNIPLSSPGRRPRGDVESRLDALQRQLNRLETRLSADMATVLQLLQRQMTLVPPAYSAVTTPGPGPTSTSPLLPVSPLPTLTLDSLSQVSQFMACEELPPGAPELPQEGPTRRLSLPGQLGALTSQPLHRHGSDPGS
# CYP3A4 [11] = biological target: T4, CYP3A4; assay: Time dependent inhibition of CYP3A4 (unknown origin) using midazolam as substrate at 30 uM measured after 30 mins relative to control; format: ADME; settings: probe midazolam, read-out: TDI
# [12] = Metabolic stability in human hepatocytes assessed as intrinsic clearance measured per 10^6 cells; format: ADME, cell-based, Hepatocyte; settings: read-out: CLH
# [13] = biological target: T2, Tyrosine-protein kinase receptor UFO; assay: Inhibition of human AXL measured after 150 mins by ATP-competitive HTRF based biochemical assay
# CYP2D6 = CYP2D6 (Homo sapiens, UniProt P10635); assay: Time dependent inhibition of CYP2D6 (unknown origin) at 30 uM measured after 30 mins relative to control; format: ADME; settings: read-out: TDI
# CYP2D6, sequence (P10635 whole entry): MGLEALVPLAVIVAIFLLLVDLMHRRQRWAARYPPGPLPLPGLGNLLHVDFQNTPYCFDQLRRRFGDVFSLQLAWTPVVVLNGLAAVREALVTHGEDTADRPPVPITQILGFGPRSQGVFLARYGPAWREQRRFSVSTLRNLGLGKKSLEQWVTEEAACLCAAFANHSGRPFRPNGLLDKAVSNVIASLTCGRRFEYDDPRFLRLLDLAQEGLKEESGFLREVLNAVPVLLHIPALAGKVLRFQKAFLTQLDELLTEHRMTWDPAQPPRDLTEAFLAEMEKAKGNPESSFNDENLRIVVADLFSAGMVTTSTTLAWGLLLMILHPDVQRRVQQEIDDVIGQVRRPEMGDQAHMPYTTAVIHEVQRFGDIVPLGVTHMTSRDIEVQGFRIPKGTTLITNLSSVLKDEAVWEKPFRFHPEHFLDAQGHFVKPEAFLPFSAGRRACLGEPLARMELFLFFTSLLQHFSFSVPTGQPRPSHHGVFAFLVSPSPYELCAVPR
smiles,measurement,setting,value
Cc1cccnc1-c1ccc(-c2c[nH]c3ncc(-c4ccc5c(c4)CC[C@@H](N4C6COCC4C6)CC5)cc23)cc1,"inhibition at 0.5 h, 30 µM",CYP2B6,14%
same,efflux ratio,[1],0.9
same,Papp A→B,[2],0.58 ×10⁻⁶ cm/s
same,clearance,[3],2.67 mL/min/kg
same,IC50,[4],0.067 µM
same,"inhibition at 0.5 h, 30 µM",CYP1A2,0%
same,"inhibition at 0.5 h, 30 µM",CYP3A4 [5],69%
same,clearance,[6],4.67 mL/min/kg
same,"inhibition at 0.5 h, 30 µM",CYP2C9,13%
same,clearance,[7],3.33 mL/min/kg
same,AUC(0-inf),[8],4800 ng·h/mL
same,"inhibition at 0.5 h, 30 µM",CYP2C8,0%
same,clearance,[9],11.8 mL/min/kg
same,hepatocyte CLint,[10],5.4 µL/min/1e6 cells
same,"inhibition at 0.5 h, 30 µM",CYP2C19,12%
same,inhibition at 10 µM,hERG (KCNH2),40%
same,"inhibition at 0.5 h, 30 µM",CYP3A4 [11],58%
same,hepatocyte CLint,[12],< 2.7 µL/min/1e6 cells
same,IC50,[13],0.00072 µM
same,"inhibition at 0.5 h, 30 µM",CYP2D6,14%
